This experiment relates to M. tuberculosis. In kind it is cell-based, Mycobacterium tuberculosis (laboratory strain H37Rv). The following applies: peptide 10 µg/mL; for Time to Positivity (Days.Hours) Experiment 2a / Time to Positivity (Days.Hours) Experiment 2b: diluted inoculum; for Time to Positivity (Days.Hours) Experiment 2a: technical repeat 2a, TB control (no peptide) 15.01; for Time to Positivity (Days.Hours) Experiment 2b: technical repeat 2b, TB control (no peptide) 15.20; for Time to Positivity (Days.Hours) Experiment 1a / Time to Positivity (Days.Hours) Experiment 1b: less diluted inoculum; for Time to Positivity (Days.Hours) Experiment 1a: technical repeat 1a, TB control (no peptide) 7.02; for Time to Positivity (Days.Hours) Experiment 1b: technical repeat 1b, TB control (no peptide) 7.01; for Average % Faster than Control: overall average of the averages of experiments 1a/1b and 2a/2b, negative = slower.

Turning to “3: peptide from the authors' library (WKWRVRVTI) [Peptide 3]”, the “Average % Faster than Control” value was determined as 4.0%. In addition, where the note is “MGIT”, the “Time to Positivity (Days.Hours) Experiment 2a” value was found to be 14.22 Days.Hours, the “Time to Positivity (Days.Hours) Experiment 2b” value was 15.02 Days.Hours, the “Time to Positivity (Days.Hours) Experiment 1a” value is 6.08 Days.Hours and the “Time to Positivity (Days.Hours) Experiment 1b” value turned out to be 6.17 Days.Hours.
The matching figures for “5: peptide from the authors' library; same sequence as P8/Designed * (FFIYVWRRR) [Peptide 5]”: 8.8%, 14.06 Days.Hours, 14.16 Days.Hours, 5.21 Days.Hours and 6.08 Days.Hours.
Regarding “9: peptide from the authors' library; same sequence as P9/Designed (KRRWRIWLV) [Peptide 9]”, the “Average % Faster than Control” value is given as 5.8%. For the same substance, for the setting “MGIT”, the “Time to Positivity (Days.Hours) Experiment 2a” value is recorded as 15.08 Days.Hours, the “Time to Positivity (Days.Hours) Experiment 2b” value is listed as 14.21 Days.Hours, the “Time to Positivity (Days.Hours) Experiment 1a” value stood at 6.07 Days.Hours and the “Time to Positivity (Days.Hours) Experiment 1b” value was determined as 6.04 Days.Hours.
As for “12: peptide from the authors' library (RRRIKIRWY) [Peptide 12]”, the “Average % Faster than Control” value worked out at 10.2%. Where the note is “MGIT”, the “Effect on TTP of MTB in words” value is “strong hormetic response”, the “Time to Positivity (Days.Hours) Experiment 2a” value amounted to 14.08 Days.Hours, the “Time to Positivity (Days.Hours) Experiment 2b” value was found to be 14.22 Days.Hours and the “Time to Positivity (Days.Hours) Experiment 1a” value stood at 6.14 Days.Hours. Besides, the “Time to Positivity (Days.Hours) Experiment 1b” value (MGIT) stood at 5.20 Days.Hours.
On to “16: peptide from the authors' library (RLKRWWKFL) [Peptide 16]”, for which the “Average % Faster than Control” value is recorded as 8.6%. Besides, where the note is “MGIT”, the “Time to Positivity (Days.Hours) Experiment 2a” value is 14.17 Days.Hours, the “Time to Positivity (Days.Hours) Experiment 2b” value turned out to be 14.20 Days.Hours, the “Time to Positivity (Days.Hours) Experiment 1a” value worked out at 6.01 Days.Hours and the “Time to Positivity (Days.Hours) Experiment 1b” value came to 5.22 Days.Hours.
As for “20: peptide from the authors' library (KWKWWWRKI) [Peptide 20]”, the “Average % Faster than Control” value turned out to be 8.3%. For the same substance, where the note is “MGIT”, the “Time to Positivity (Days.Hours) Experiment 2a” value is recorded as 14.01 Days.Hours, the “Time to Positivity (Days.Hours) Experiment 2b” value is listed as 14.16 Days.Hours, the “Time to Positivity (Days.Hours) Experiment 1a” value was 6.11 Days.Hours and the “Time to Positivity (Days.Hours) Experiment 1b” value was found to be 6.00 Days.Hours.
As to “22: peptide from the authors' library (IRMRIRVLL) [Peptide 22]”, the “Average % Faster than Control” value is reported as 4.7%. For the same substance, under “MGIT”, the “Time to Positivity (Days.Hours) Experiment 2a” value is 15.19 Days.Hours, the “Time to Positivity (Days.Hours) Experiment 2b” value is on record as 15.10 Days.Hours, the “Time to Positivity (Days.Hours) Experiment 1a” value was determined as 6.00 Days.Hours and the “Time to Positivity (Days.Hours) Experiment 1b” value turned out to be 6.07 Days.Hours.
For “29: peptide from the authors' library (RWRWWWRVY) [Peptide 29]” the same measures were 4.9%, 15.12 Days.Hours, 15.01 Days.Hours, 6.13 Days.Hours and 6.00 Days.Hours.
Regarding “49: peptide from the authors' library (VRLRIRVRVIRK) [Peptide 49]”, the “Average % Faster than Control” value turned out to be 6.2%. In addition, under “MGIT”, the “Time to Positivity (Days.Hours) Experiment 2a” value came out at 15.12 Days.Hours, the “Time to Positivity (Days.Hours) Experiment 2b” value worked out at 15.02 Days.Hours, the “Time to Positivity (Days.Hours) Experiment 1a” value was 5.22 Days.Hours and the “Time to Positivity (Days.Hours) Experiment 1b” value worked out at 6.06 Days.Hours.
Consider “59: peptide from the authors' library (ILKWKRKWWKWRR) [Peptide 59]”, for which the “Average % Faster than Control” value came out at 14.5%. For the same substance, for the setting “MGIT”, the “Time to Positivity (Days.Hours) Experiment 2a” value is given as 13.19 Days.Hours, the “Time to Positivity (Days.Hours) Experiment 2b” value came to 12.22 Days.Hours, the “Time to Positivity (Days.Hours) Experiment 1a” value turned out to be 5.17 Days.Hours and the “Time to Positivity (Days.Hours) Experiment 1b” value is 5.22 Days.Hours.
Turning to “60: peptide from the authors' library (ILKWKIFKWKWFR) [Peptide 60]”, the “Average % Faster than Control” value was 7.9%. For the same substance, for the setting “MGIT”, the “Time to Positivity (Days.Hours) Experiment 2a” value was 14.19 Days.Hours, the “Time to Positivity (Days.Hours) Experiment 2b” value worked out at 14.16 Days.Hours, the “Time to Positivity (Days.Hours) Experiment 1a” value was determined as 6.03 Days.Hours and the “Time to Positivity (Days.Hours) Experiment 1b” value was found to be 6.02 Days.Hours.

The values above are taken from PMC10536189 (Microorganisms, 2023).
